We go through four molecules from patent US5037826A, “1-substituted naphthyridine and pyridopyrazine derivatives” (Schering Corporation, priority 1986, dated 1991).

As a reminder, the ED50 is the dose that gives a 50% effect, or the effect in half of the subjects.

The conditions of assay [1]: Carboni et al., Farmaco, Ed. Sci., 1973; cited from earlier work.
Assay [2] deals with antigen induced broncho-constriction in sensitized guinea pigs. As to the kind of experiment: Inhibition of anaphylactic bronchospasm in sensitized guinea pigs (ovalbumin challenge). It counts as in vivo, guinea pig. As to conditions: 2 hours before ovalbumin challenge, vs vehicle-treated control. How it is done:
The compounds of this invention may be employed as anti-allergy agents in the treatment of, for example, asthma, allergic or seasonal rhinitis, and/or chronic bronchitis. The anti-allergy method of this invention is identified by tests which measure a compound's inhibition of anaphylactic bronchosoasm in sensitized guinea pigs having antigen induced broncho-constriction.
In one such test procedure, male Hartley guinea pigs (250-300 g) are sensitized with 5 mg ovalbumin injected i.p. and 5 mg injected s.c. in 1 ml saline on day 1 and 5 mg ovalbumin injected i.p. on day 4. The sensitized animals are used 3-4 weeks later at which time they weigh 450-500 g.
The sensitized guinea pigs are fasted overnight and the following morning are anesthetized with 0.9 ml/kg i.p. of dialurethane (0.1 g/ml diallybarbituric acid, 0.4 g/ml ethylurea and 0.4 g/ml urethane). The trachea are cannulated and the animals are ventilated by a Harvard® rodent respirator at 50 strokes/minute with a stroke volume of 5 ml. A side arm to the tracheal cannula is connected to a pressure transducer (Harvard) to obtain a continuous measure of intratracheal pressure which is recorded on a polygraph (Harvard). The jugular vein is cannulated for the i.v. administration of substances. The animals are challenged with antigen (0.5% ovalbumin) as an aerosol generated from a DeVilbiss® Model 65 ultrasonic nebulizer and delivered through the tracheal cannula for 30 seconds. Bronchoconstriction is measured as the peak increase in intratracheal pressure occurring within 5 minutes after antigen challenge.
The sensitized guinea pigs are injected i.v. with 1 mg/kg propranolol, 5 mg/kg indomethacin and 2 mg/kg mepyramine given together in a volume of 1 ml/kg. Fifteen minutes later the animals are challenged with nebulized ovalbumin. Test compounds are administered orally 2 hours before challenge with ovalbumin. Suppression of anaphylactic bronchospasm is expressed as a percent inhibition of the peak increase in intratracheal pressure by comparison to a vehicle-treated control group.

The subject of assay [3] is GVHR splenomegaly in C57 B1/6XA/J(F6AF1) male mice. As to the kind of experiment: Graft vs. host reaction (GVHR), spleen weight. It counts as in vivo, mouse. As to conditions: 100 mg/kg orally for 10 days; compared to untreated animals. How it is done:
To induce a GVHR, C57 B1/6XA/J(F6AF1) male mice were injected intravenously with parental (C57B/6J) spleen and lymph node cells. 3-(2-Hydroxyethyl)-1-phenyl-1,8-naphthyridin-2(1H)-one (Compound A) was then administered orally for 10 days beginning on the day prior to the cell transfer. On the day following the last treatment, the animals were sacrificed, and their spleens were excised and weighed. The enlargement of the spleen of the host is a result of a GVHR. To some extent it is the host's own cells which infiltrate and enlarge the spleen although they do this because of the presence of graft cells reacting against the host. The amount of spleen enlargement, splenomegaly, is taken as a measure of the severity of the GVHR.
In carrying out the GVHR the animal in the experimental group is injected with parental cells, cells of the same species but of different genotype, which cause a weight increase of the spleen. […] The effectiveness of the compounds administered to the mice in the experimental group is measured by comparing the spleen weight of the untreated and treated GVH animal with that of the syngeneic control. Compound A in this test procedure reduced spleen weight by 92% at a dose of 100 mg/kg as compared to the untreated animals.

Assay [4] concerns reverse passive Arthus reaction in the pleural cavity of rats. As to the kind of experiment: Reverse passive Arthus reaction in the pleural cavity of rats (Myers et al.). It counts as in vivo. As to conditions: Rattus norvegicus, po; pleural fluid. How it is done: Another procedure for testing for acute anti-inflammatory activity measures the reverse passive Arthus reaction in the pleural cavity of rats as described in Myers et al., Inflammation, Vol. 9, No. 1, 1985, pp. 91-98. Compound A provided an ED50 value (fluid) of about 5.0 mg/kg p.o. in such procedure.

The test system of assay [5] is spleen weight of BDF1 mice. As to the kind of experiment: Splenic atrophy, decrease in spleen weight. As to conditions: Mus musculus, oral, seven consecutive days. The class given is in vivo. How it is done: The immunosuppressive activity of the compounds may also be shown by a decrease in spleen weight after dosing BDF1 mice orally with the drug for seven (7) consecutive days. The mice are sacrificed on the eighth day. The percent decrease in spleen weight is measured for each dosage level. In this procedure, Compound A provided an ED30 of less than 25 mg/kg.

In assay [6] the test system is Reversed Passive Arthus Response in the right rear paw of rats. As to the kind of experiment: Reversed Passive Arthus Response (RPAR), rat paw volume. The class given is in vivo. The conditions noted are these: 25 mg/kg p.o. once daily for 3 days. The procedure:
Male Lewis inbred albino rats weighing 180-200 grams obtained from Charles River Breeding Laboratories are used in these experiments. The rats are housed 3 animals/cage and food and water are allowed ad libitum. The animals are numbered 1-3 in each cage and color marked for identification purposes.
All reagents and drugs are prepared just prior to the study. Crystallized and lyophilized bovine serum albumin (BSA), available from Sigma Chemical Company, is solubilized without shaking in cold, sterile, pyrogen-free saline (10 mg/ml). Lyophilized anti-bovine serum albumin (IgG fraction), obtained from Cappel Laboratories, is suspended in sterile distilled water and diluted with cold, pyrogen-free saline (PFS) just prior to use. […]
Groups of animals (6/group) are dosed with drug in MC by gavace once daily for 3 days. […] The volume of mercury displaced is converted to weight and recorded. This value is considered to be the control reading for the animal. Paw volumes are subsequently recorded with a plethysmograph during the development of the inflammation at 2 and 4 hours post-challenge.
Results are expressed by the chance in paw volume (Δ paw volume) from the control reading for each animal to that recorded 2 and 4 hours post-challenge. […] Differences from control in drug-treated groups are expressed as percent change from control are determined.

The structures appear in SMILES notation.

For `O=c1ccc2ccc(OCc3ccccc3)nc2n1Cc1ccccc1` [1-benzyl-7-benzyloxy-[1,8]naphthyridin-2-one], the antibacterial activity result in assay [1] is “inactive”.

As for `O=c1c(CCO)cc2cccnc2n1-c1cccc(Cl)c1` [B], the “% Inhibition of anaphylactic bronchospasm (peak increase in intratracheal pressure)” value in assay [2] (dose p.o. 2 mg/kg) was 79%.

Regarding `O=c1c(CCO)cc2cccnc2n1-c1ccccc1` [Compound A, 3-(2-Hydroxyethyl)-1-phenyl-1,8-naphthyridin-2(1H)-one], the “% Inhibition of anaphylactic bronchospasm (peak increase in intratracheal pressure)” value in assay [2] (dose p.o. 5 mg/kg) turned out to be 78%. Also, in assay [3], the “reduction of spleen weight” value is listed as 92%. In addition, in assay [4], the ED50 is roughly 5 mg/kg. This molecule also registered an ED30 in assay [5] of less than 25 mg/kg.

For `COCCOc1c(C)c2cccnc2n(-c2ccccc2)c1=O` [Compound C], the “% Inhibition of anaphylactic bronchospasm (peak increase in intratracheal pressure)” value in assay [2] (dose p.o. 5 mg/kg) is reported as 25%. In assay [6] (2 hours post-challenge), the “% inhibition (Δ paw volume) after 2 hours” value was determined as 74%. Further, in assay [6] (4 hours post-challenge), the “% inhibition (Δ paw volume) after 4 hours” value stood at 36%.
